Experimental data published in article PMC6004087, “Production of the compatible solute α-D-glucosylglycerol by metabolically engineered Corynebacterium glutamicum” (Microbial Cell Factories, 2018).

Biological target: T1, OtsA (trehalose 6-phosphate synthase; OtsA-Strep) (Corynebacterium glutamicum, UniProt Q8NMF3)
T1 construct: gene Cgl2624; full-length OtsA with C-terminal Strep-tag kept (pASK-IBA3-otsA), expressed in E. coli BL21(DE3), Strep-Tactin purified, 53 kDa
T1 sequence (Q8NMF3 1-485): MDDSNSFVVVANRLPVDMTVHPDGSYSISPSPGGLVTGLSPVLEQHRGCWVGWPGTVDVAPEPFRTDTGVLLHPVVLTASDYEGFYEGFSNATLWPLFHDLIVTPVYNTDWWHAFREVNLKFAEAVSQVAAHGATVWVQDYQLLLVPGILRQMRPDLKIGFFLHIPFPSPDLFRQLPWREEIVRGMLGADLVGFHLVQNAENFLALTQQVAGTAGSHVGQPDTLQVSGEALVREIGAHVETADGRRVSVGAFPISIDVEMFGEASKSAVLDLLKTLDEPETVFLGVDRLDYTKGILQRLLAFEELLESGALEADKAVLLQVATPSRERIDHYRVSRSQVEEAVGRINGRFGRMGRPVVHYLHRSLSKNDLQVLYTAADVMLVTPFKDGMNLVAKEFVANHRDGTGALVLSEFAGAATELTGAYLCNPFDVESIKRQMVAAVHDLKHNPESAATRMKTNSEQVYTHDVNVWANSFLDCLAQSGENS
Assay: GC of trehalose after alkaline phosphatase treatment of trehalose-6-phosphate
Type: biochemical
Conditions: co-substrate 3 mM glucose-6-phosphate; 10 mM Tris-maleate, 5 mM MgCl2, 0.05 mM EDTA, pH 7.5, 30 °C; 3 mM or 5 mM sugar nucleotide

SMILES: Nc1ncnc2c1ncn2[C@@H]1O[C@H](COP(=O)(O)OP(=O)(O)O[C@H]2O[C@H](CO)[C@@H](O)[C@H](O)[C@H]2O)[C@@H](O)[C@H]1O [ADP-glucose]
- specific activity: C. glutamicum OtsA used UDP- as well as ADP-glucose as precursor for trehalose-phosphate synthesis
